Source: US6027747A, “Process for the production of dry pharmaceutical forms and the thus obtained pharmaceutical compositions” (priority 1998, dated 2000)
Several values for one entry are separate records, joined by “and”; a condition that tells them apart may be missing. Equal values may be shown once.

Experiment: Kinetics of dissolution of fenofibrate (UV 278 nm)
Assay type: physicochemical
Conditions: for kinetics of dissolution of fenofibrate: 5 mg/l, one value per dish, Dish 1 to 6 in order
Description: The system of measurements used for the galenical control of the solid dispersions was made of two members: an apparatus of dissolution DISSOLUTEST DT 6 from ERWEKA [Euraf 55 rue Deschanel 92400 Courbevoie (France)] and a peristaltic pump 505 SR WATSON-MARLOW from Prolabo. Each test of dissolution was performed in one liter of degassed distilled water at 37° C. and at a pH near neutral. A sample of 4 mg of estradiol (i.e. 25 mg co-precipitate) was introduced in each of the six reactors at time t=0 and the speed of stirring of the paddles was 100 rounds/min. The dosages by UV (absorption at 278 nm) were performed continuously and in a closed circuit of a multi-channel peristaltic pump, connecting the beakers of the Dissolutest to the dishes of the spectrophometer. The latter was linked to a recorder and to a printing machine to permit the measurement at steady intervals of every 3 minutes of the variations of the optical density, themselves being proportional to the variations of the concentration of the active ingredient in the dissolution medium.
This was identical to that used for the study of the kinetics of dissolution for the co-precipitates of estradiol.
Therefore, it had been decided to prepare a calibrating range at 5 mg/l as for progesterone and to determine the kinetics of dissolution while introducing an equivalent amount of co-precipitate.

kinetics of dissolution of fenofibrate (0 min): 0 | kinetics of dissolution of fenofibrate (6 min): 92.1 and 95.78 and 91.05 and 90.52 | kinetics of dissolution of fenofibrate (9 min): 87.89 and 91.05 and 86.31 and 85.78
SMILES: CC(C)OC(=O)C(C)(C)Oc1ccc(C(=O)c2ccc(Cl)cc2)cc1 [Fenofibrate]
kinetics of dissolution of fenofibrate (3 min): 95.26 and 98.94 and 93.68 and 94.21 and 93.15 | kinetics of dissolution of fenofibrate (12 min): 83.68 and 86.31 and 82.1 and 83.15 and 80.52 | kinetics of dissolution of fenofibrate (15 min): 80.52 and 83.15 and 78.42 and 80 and 76.84 | kinetics of dissolution of fenofibrate (18 min): 77.89 and 77.36 and 80 and 75.26 and 74.21 | kinetics of dissolution of fenofibrate (21 min): 74.73 and 76.84 and 71.57 and 73.68 and 71.05 | kinetics of dissolution of fenofibrate (24 min): 72.1 and 73.68 and 68.94 and 71.05 and 68.42 | kinetics of dissolution of fenofibrate (27 min): 70 and 71.57 and 66.84 and 68.94 and 66.31 | kinetics of dissolution of fenofibrate (30 min): 68.42 and 67.89 and 69.47 and 64.73 and 67.36 | recrystallization in the course of the dissolution test (in words): a recrystallization of fenofibrate had been observed
